Assay results taken from ChEMBL document CHEMBL5131427, “Targeted Discovery of Amantamide B, an Ion Channel Modulating Nonapeptide from a South China Sea Oscillatoria Cyanobacterium” (J Nat Prod, 2022).
Active and inactive are the calls of the source. The rule behind the calls is not given here. Square brackets hold non-standard residues; d marks the D form. Peptide text beside a SMILES is read from it. * marks the point of attachment. dNMeF = CN[C@H](Cc1ccccc1)C(=O)O; NMeL = CN[C@@H](CC(C)C)C(=O)O; dNMeV = CN[C@@H](C(=O)O)C(C)C; Butyryl = CCCC(=O)*

Experiments:
[1] = Cytotoxicity against Swiss-Webster mouse primary neocortical neuron at 10 uM incubated for 45 min by multi minute duration test; type: toxicity, cell-based; conditions: 0.75 h
CCRF-CEM = test: Cytotoxicity against human CCRF-CEM cells measured after 72 hrs by MTT assay; type: functional, cell-based
K562 = test: Cytotoxicity against human K562 cells measured after 72 hrs by MTT assay; type: functional, cell-based; conditions: K562, 72 h
[2] = test system: Primary neocortical neuron; test: Suppression of spontaneous calcium oscillation frequency in Swiss-Webster mouse primary neocortical neuron at 10 uM incubated for 45 min by Fluo-4 dye based; type: functional, cell-based
U-937 = test: Cytotoxicity against human U-937 cells measured after 72 hrs by MTT assay; type: functional, cell-based; conditions: U-937, 72 h

SMILES	Activity [1]	IC50 (CCRF-CEM)	IC50 (K562)	Activity [2]	IC50 (U-937)
CCCC(=O)N(C)[C@H](C(=O)N(C)[C@@H](CC(C)C)C(=O)N[C@@H](CC(C)C)C(=O)N1CCC[C@H]1C(=O)N(C)[C@@H](C(=O)N[C@H](C(=O)NCC(=O)N(C)[C@H](Cc1ccccc1)C(=O)N1CCC[C@H]1C(=O)OC)[C@@H](C)CC)C(C)C)C(C)C	Non-Toxic	5.6 µM	21 µM	Active	7.3 µM
CCCC(=O)N[C@H](C(=O)N(C)[C@@H](CC(C)C)C(=O)N[C@@H](CC(C)C)C(=O)N1CCC[C@H]1C(=O)N(C)[C@@H](C(=O)N[C@H](C(=O)NCC(=O)N(C)[C@H](Cc1ccccc1)C(=O)N1CCC[C@H]1C(=O)OC)[C@@H](C)CC)C(C)C)C(C)C (Butyryl-V[NMeL]LP[dNMeV]IG[dNMeF]P-OMe)	Non-Toxic	8.3 µM	> 25 µM	Active	6.1 µM
Nc1cc(F)ccc1NC(=O)c1ccc(CNC(=O)/C=C/c2cccnc2)cc1 [TUCIDINOSTAT]		1 µM	8.3 µM		3.3 µM
